# Assay results published in patent publication US20210293825A1, “METHODS FOR PRECISION THERAPEUTIC TARGETING OF HUMAN CANCER CELL MOTILITY AND KITS THEREOF” (UNITED STATES GOVERNMENT AS REPRESENTED BY THE DEPARTMENT …, priority 2018, published 2021).
# Key:
# [1] = target: T1, client protein binding to CDC37/HSP90β heterocomplexes (Homo sapiens, UniProt P08238+Q16543); experiment: Modified LUMIER assay; type: cell-based
# T1 construct: expressed in transfected cells; host or cells: HEK293T
# Procedure: (§1) HEK293T cells were transfected with 1 of 420 different protein kinases, treated with 10 μM KBU2046 (N=5 replicates) or vehicle control (N=5) for three days, and LUMIER assays performed. The N=17 kinases that gave significant findings (Student's t-test <0.05) in the same direction in each of two separate experiments are depicted. Each separate treatment and kinase condition in each of two separate experiments was conducted in replicates of N=5. […] FIGS. 6c and 6d show the results of the wound healing assay. PC3 cells were transfected with siRNA targeting RAF1 (si-Raf1) or non-targeting siRNA (si-control), treated with KBU2046 or vehicle as above, and RAF1 protein measured by Western blot (c) and effects upon wound healing measured (d). […] Purified recombinant HSP90β, CDC37, and RAF1 were combined with KBU2046, as indicated, incubated in an in vitro kinase assay for the indicated times, and Western blot for RAF1-Ser^338 phosphorylation performed. FIGS. 6f and 6g show the effect on HSP90β/CDC37 heterocomplex formation and function in vitro. Purified recombinant HSP90β, CDC37, RAF1, SGK3 or MAP3K6 were combined and treated with KBU2046 or vehicle control, as indicated, incubated in an in vitro kinase assay for the indicated times, and Western blot performed, as denoted. Experiments were repeated at separate times at least once, with similar results.
# (§2) To examine whether this is associated with an altered signature of bound client kinase proteins, a modified LUMIER assay (Taipale, M. et al., Cell 150, 987-1001 (2012)) was performed to detect KBU2046-induced changes in client protein binding to CDC37/HSP90β heterocomplexes in intact cells. […] These findings are in contrast to classical inhibitors of HSP90 function which have been shown, through this same assay, to affect the binding of the majority client kinase proteins (Taipale, M. et al., Cell 150, 987-1001 (2012)).
# (§3) LUMIER assay. The LUMIER assay was performed as described (Taipale, M. et al., Cell 150, 987-1001 (2012)).
# (§4) Experiments had N=5 vehicle treated control plus N=5 KBU2046 treated separate wells of cells. Those yielding a t-test p value <0.05 in experiment #1, or those whose values were at or below baseline, were repeated in experiment #2. […] Of 420 kinase proteins tested, 17 (4%) met these criteria (FIG. 6a). For these 17 kinases, the experiment was repeated except that HEK293T cells were treated with TGFβ for the last 24 hrs of the 3 day incubation (FIG. 6b).
# [2] = tested on: client protein binding to CDC37/HSP90β heterocomplexes; experiment: Modified LUMIER assay; type: cell-based
# Procedure: as §1, §2, §3, §4
# MKK4 = target: T2, MKK4 (Homo sapiens, UniProt P45985, S257E/T261E); experiment: Fluorescence-based thermal shift assay, MKK4; type: binding; design: made in house
# T2 sequence (P45985 37-399 S257E/T261E): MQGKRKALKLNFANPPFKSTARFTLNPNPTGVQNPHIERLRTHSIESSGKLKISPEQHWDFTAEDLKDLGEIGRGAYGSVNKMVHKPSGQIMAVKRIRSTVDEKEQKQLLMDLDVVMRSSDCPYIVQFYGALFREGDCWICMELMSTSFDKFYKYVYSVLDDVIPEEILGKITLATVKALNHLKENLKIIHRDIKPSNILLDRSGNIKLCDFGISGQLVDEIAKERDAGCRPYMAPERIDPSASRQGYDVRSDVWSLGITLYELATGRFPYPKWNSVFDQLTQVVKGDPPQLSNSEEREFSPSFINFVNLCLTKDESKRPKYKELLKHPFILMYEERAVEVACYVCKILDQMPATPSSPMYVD
# Procedure: FIG. 16a is a depiction of established MKK4 pathway regulating human PCa cell metastasis. […] Values are the mean±SD (of N=2 replicates) increase in melting temperature (ΔTm) of purified recombinant MKK4 induced by the indicated concentrations of KBU2046 or genistein. […] The indicated concentrations of KBU2046 were added to recombinant activated MKK4, and its ability to phosphorylate kinase dead p38a MAPK (K53A) was measured by Western blot for total (p38 MAPK) and phosphorylated (pp38 MAPK) forms of p38 MAPK. […] PC3-M cells were pre-treated for 24 hours with 50 μM KBU2046 or genistein, as indicated, then with TGFβ, and Western blot performed. These findings are from a single experiment, with similar findings in identical separate experiments, repeated at least once.
# Biophysical and Biochemical Binding Assays. Fluorescent thermal shift (Krishna, S. N. et al., PLoS One 8, e81504 (2013)), isothermal titration calorimetry (Chavez, J. D. et al., Mol Cell Proteomics 12, 1451-67 (2013)), and biolayer interferometry assays (Makowska-Grzyska, M. et al., Biochemistry 51, 6148-63 (2012)), were performed using MEK4EE (37-399, S257E, T261E) cloned into pMCSG7 and KRX Competent E. coli cells (Promega Inc.) and full-length HSP90B and CDC37 vectors and Rosetta BL-21 and BL-21 DE-3 competent E. coli cells, respectively. […]
# T1 sequence (P08238 2-724): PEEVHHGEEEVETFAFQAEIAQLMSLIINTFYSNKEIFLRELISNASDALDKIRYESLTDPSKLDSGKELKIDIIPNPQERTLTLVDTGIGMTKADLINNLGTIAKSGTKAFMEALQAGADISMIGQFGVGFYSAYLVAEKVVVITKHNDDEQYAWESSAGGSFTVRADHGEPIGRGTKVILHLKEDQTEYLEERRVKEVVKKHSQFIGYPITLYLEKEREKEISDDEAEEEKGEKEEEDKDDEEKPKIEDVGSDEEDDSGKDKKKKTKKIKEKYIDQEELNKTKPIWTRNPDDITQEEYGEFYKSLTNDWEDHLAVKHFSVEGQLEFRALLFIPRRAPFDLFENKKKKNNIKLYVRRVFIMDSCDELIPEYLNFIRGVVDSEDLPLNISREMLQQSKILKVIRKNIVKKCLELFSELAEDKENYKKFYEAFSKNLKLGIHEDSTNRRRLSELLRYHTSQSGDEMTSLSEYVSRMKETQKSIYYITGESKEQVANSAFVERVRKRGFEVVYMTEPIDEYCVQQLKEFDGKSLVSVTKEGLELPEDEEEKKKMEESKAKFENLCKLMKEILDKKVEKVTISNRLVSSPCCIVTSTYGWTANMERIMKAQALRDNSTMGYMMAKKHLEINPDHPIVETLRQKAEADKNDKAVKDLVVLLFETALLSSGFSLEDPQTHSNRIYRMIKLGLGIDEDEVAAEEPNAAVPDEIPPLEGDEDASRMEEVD
# T1 sequence (Q16543 whole entry): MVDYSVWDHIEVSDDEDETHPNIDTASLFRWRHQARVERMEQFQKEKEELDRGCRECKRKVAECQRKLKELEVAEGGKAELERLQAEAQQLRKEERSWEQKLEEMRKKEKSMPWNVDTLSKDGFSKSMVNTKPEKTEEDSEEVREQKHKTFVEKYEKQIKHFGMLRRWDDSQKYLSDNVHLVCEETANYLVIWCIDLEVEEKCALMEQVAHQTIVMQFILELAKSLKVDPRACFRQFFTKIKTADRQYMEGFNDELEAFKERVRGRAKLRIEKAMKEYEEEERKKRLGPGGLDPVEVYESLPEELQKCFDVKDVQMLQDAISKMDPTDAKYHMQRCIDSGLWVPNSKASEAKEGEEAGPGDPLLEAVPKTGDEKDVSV
structure (smiles),measurement,setting,value
"O=C1c2ccccc2OCC1c1ccc(F)cc1 (racemic) [KBU2046, (±)-3(4-fluorophenyl)chroman-4-one]",RAF1 binding to complexes,[1]; TGFβ treated cells,decreased binding
same,RIPKI binding to complexes,[1]; TGFβ treated cells,decreased
same,SGK3 binding to complexes,[1]; TGFβ treated cells,increased
same,MAP3K6 binding to complexes,[1]; intact cells,increases MAP3K6 binding to complexes
same,number of kinases with decreased binding,"[2]; 10 μM, 3 days",7
same,number of kinases with increased binding,"[2]; 10 μM, 3 days",10
same,share of kinases whose binding was significantly changed,[2]; of 420 kinase proteins,4%
same,number of kinases whose binding was significantly changed,"[2]; of 420 kinase proteins, 10 μM, 3 days",17
same,binding to MKK4,MKK4,did not bind to MKK4
